In paper PMC3026800, “Mechanism of Inhibition of Enveloped Virus Membrane Fusion by the Antiviral Drug Arbidol” (PLoS ONE, 2011):
Where “and” joins values, the source holds several entries; their conditions need not be identical. Identical values can stand only once. Like-named read-outs stand apart in the source and are kept apart here.

Key:
[1] = Indole fluorescence quenching of tryptophan derivative in micelles or liposomes; type: binding
Method: (§1) Measurements were recorded on a Tecan Infinite® M1000 spectrofluorimeter.

[2] = Indole fluorescence quenching of tryptophan derivative in solution; type: binding; conditions: NATA in solution
Method: as §1

[3] = target: T1, HCV NS4A[1–22]* transmembrane peptide (Hepatitis C virus genotype 1a, UniProt P27958); test: Trp fluorescence quenching of peptide in PC:chol liposomes; type: binding; conditions: peptide in PC∶chol liposomes (1∶20)
T1 construct: HCV NS4A[1–22]* transmembrane peptide […]
Method: as §1

[4] = target: Trp residues of model membrane-binding peptides (HCV NS4A and BVDV NS5A); test: Trp fluorescence quenching, model membrane peptides taken together; conditions: HCV NS4A and BVDV NS5A peptides in PC∶chol liposomes, both pH, summary; read-out: Apparent KD toward peptide Trp
Method: as §1

[5] = Surface plasmon resonance binding to immobilized DMPC liposomes (L1 chip)
Method: The running buffer was milliQ water. The influence of liposome concentrations on the final SPR signal was tested; we assayed lipid concentrations from 0.5 to 5 mM and measured the resulting resonance units (RU). […] We therefore chose the 2 mM concentration for our experiments. DMPC liposomes were resuspended in milliQ water and captured on sensor chip at 2 µl/min for 5 min. The flow rate was increased to 30 µl/min and the liposome surface was then washed with 10 mM NaOH for 1 min. Liposomes immobilized on the chip surface gave approx. a 5000 RU signal. […] After each binding cycle, the sensor surface was regenerated to the original matrix by injecting 50 mM NaOH/isopropanol (6∶4, v∶v). The sensor surface was then coated with a fresh liposome suspension for the next binding cycle. KD values were calculated from the equilibrium resonance signal (Req) as a function of the analyte concentration. Req values were estimated by extrapolation to infinite time using plots of resonance signal as a function of the reciprocal of time. Apparent KD were then calculated by nonlinear fitting to the expression Req = RmaxC/(KD+C), where Rmax is the maximum binding capacity of the surface and C is the analyte concentration, using the SigmaPlot software.

E2[606–625] peptide = E2[606–625] peptide (Hepatitis C virus genotype 1a, UniProt P27958); test: Trp fluorescence quenching of fusion-related peptide in PC:chol liposomes; type: binding, HCV strain H (genotype 1a); conditions: peptide in PC∶chol liposomes (1∶20)
Method: as §1

E2[415–432] peptide = E2[415–432] peptide (Hepatitis C virus genotype 1a, UniProt P27958); test: as above; type: binding, HCV strain H (genotype 1a); conditions: peptide in PC∶chol liposomes (1∶20)
Method: as §1

HCVpp [6] = test: Membrane fusion assay: lipid mixing between pseudoparticles and R18-labeled liposomes; conditions: pH 5.0
Method: Lipid mixing between pseudoparticles and PC∶chol∶R18 liposomes was monitored by fluorescent spectroscopy, as the dequenching of R18 [18]. In brief, R18-labeled liposomes (1 µl, 12.5 µM final lipid concentration) were added to a 37°C-thermostated cuvette containing pseudoparticles in PBS pH 7.4 [viral titers: H77 (1a) 5.10e^5; W529A-HC 10e^2; Con1 (1b) 4.10e^4; JFH1 (2a) 5.10e^4; AY734983 (2b) 8.10e^4; AY734984 (3a) 3.10e^4; AY734987 (4a) 9.10e^4; AY785283 (5a) 3.10e^4; AY736194 (6a) 5.10e^3; HA 8.10e^8; Rd114 2.10e^6], and incubated 2 min. Fusion was initiated by acidification to pH 5 with HCl, and recorded on an SLM Aminco 8000 spectrofluorimeter over a 10-min time period, at excitation and emission wavelengths of 560 nm and 590 nm, respectively. Maximal R18 dequenching was measured after the addition of 0.1% Triton X-100 (final concentration) to the cuvette to lyse liposomes.

[7] = system: Rd114pp (envelope glycoprotein of the RD114 feline oncovirus); type: cell-based; conditions: 11.3 µM arbidol; control pseudoparticles
HCVpp [8] = test: microbe, parasite or virus in culture; type: cell-based, hepatitis C virus; conditions: for inhibition at 11.3 µM: Hepatitis C virus, Huh-7, 6 h, read-out: Inhibition of HCVpp cell entry; for Effect on HCVpp cell entry: 11.3 µM Arb, 6 h, Huh-7 cells
[9] = cited from earlier work
[10] = Free Arb in Arb∶DMPC mixture by ultrafiltration; type: physicochemical; conditions: Arb∶DMPC molar ratio 1∶4, neutral pH, ultrafiltration cutoff 5000 Da
Solubility of Arb = type: physicochemical

Which results are given for `CCOC(=O)c1c(CSc2ccccc2)n(C)c2cc(Br)c(O)c(CN(C)C)c12.Cl` [Arb, 1H-indole-3-carboxylic acid, 6-bromo-4-[(dimethylamino)-methyl]-5-hydroxy-1-methyl-2-[(phenylthio)methyl]-, ethyl ester, monohydrochloride]?
Kd ([1]; TOE associated to liposomes (1∶20), summary, read-out: KD (apparent affinity)): ~10 µM; Kd ([1]; TOE in PC liposomes (1∶20), pH 5.0, read-out: KD): 9.2 ± 0.2 µM; Kd ([1]; TOE in PC liposomes (1∶20), pH 7.4, read-out: KD): 6 ± 0.5 µM; Kd ([1]; TOE in PC∶chol liposomes (1∶20), pH 5.0, read-out: KD): 15.6 ± 1.3 µM; Kd ([1]; TOE in PC∶chol liposomes (1∶20), pH 7.4, read-out: KD): 11.7 ± 1.4 µM; Kd ([1]; TOE in lyso-PC micelles (1∶800), pH 5.0, read-out: KD): 48 ± 4 µM; Kd ([1]; TOE in lyso-PC micelles (1∶800), pH 7.4, read-out: KD): 58 ± 9 µM; Kd ([2]; pH 5.0): 55 ± 10 µM; Kd ([2]; pH 7.4): 64 ± 10 µM; Kd ([3]; pH 5.0): 5.6 ± 0.3 µM; Kd ([3]; pH 7.4): 3.3 ± 0.6 µM; Kd [4]: ~4 µM; Arb remaining bound to DMPC after dissociation ([5]; all Arb concentrations tested (0.5 to 11.3 µM)): about 50%; Kd ([5]; read-out: Apparent KD for DMPC, SPR, 30°C, water, Req extrapolated to infinite time, 4 separate experiments): 6.8 ± 0.4 µM; Kd (E2[606–625] peptide; pH 5.0): 70 ± 10 µM; Kd (E2[606–625] peptide; pH 7.4): 13 ± 3 µM; Kd (E2[415–432] peptide; pH 5.0): 28 ± 7 µM; Kd (E2[415–432] peptide; pH 7.4): ~15 µM and 15 µM; Inhibition of membrane fusion activity (HCVpp [6]; all tested genotypes, 11.3 µM Arb): about 50%; IC50 (HCVpp [6]; read-out: IC50 of HCVpp fusion, lipid mixing with R18 liposomes): 11.3 µM and ~10 µM; Sensitivity of pseudoparticle entry to arbidol [7]: insensitive; inhibition at 11.3 µM (HCVpp [8]; genotype 1a): 40%; inhibition at 11.3 µM (HCVpp [8]; genotype 1b): 40%; inhibition at 11.3 µM (HCVpp [8]; genotype 2a): ~60%; inhibition at 11.3 µM (HCVpp [8]; genotype 2b): 40%; inhibition at 11.3 µM (HCVpp [8]; genotype 3a): ~60%; Effect on HCVpp cell entry (HCVpp [8]; genotype 5a): weakly affected; Effect on HCVpp cell entry (HCVpp [8]; genotype 6a): weakly affected; Toxicity [9]: low toxicity; Free Arb [10]: < 0.2%; Solubility (Solubility of Arb; ethanol): readily soluble; Solubility (Solubility of Arb; water): soluble in the mM range
